The subject of the assay is CEM cells HIV-1 protection, formazan growth assay. The experiment in a line: NCI AIDS Antiviral Assay. To be noted: for IC50: measured here: growth of uninfected CEM cells. The method, boiled down: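 CEM (human) cells, HIV-1 infected vs uninfected, 5-point dosing, formazan growth read-out. Retest threshold 50% protection.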

The source made the active and inactive calls.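 How the source made its calls: active means compounds giving half or more protection of infected cells from virus-caused growth loss, again on retest; inactive means the rest.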 *1 amine or outer side, *2 acyl side, *3 side chain or, on linkers, in order; H or OH if unused. Where a SMILES comes first, the peptide text is derived from it. [ ]: non-standard residue; d: D form. The star is where a group is joined. X3 = CC(=O)N(C)SCC(N[*:1])C(=O)[*:2]; X20 = CC(=O)N(C)SCC(N*)/C(O)=N\O; Cbz = O=C(OCc1ccccc1)*; Bn = c1ccc(C*)cc1; For = O=C* Bounds are passed on as bounds.

What is called EC50 is the concentration giving half of the maximal effect. For orientation: IC50 means the concentration needed to halve the response being measured. As for `Cc1c(C(=O)CSc2nc3ccccc3[nH]2)c(=O)n(-c2ccccc2)n1C`, the EC50 is more than 95.5 µM and the 50% inhibitory concentration (IC50) is more than 95.5 µM.

As for `O=C(Cc1ccccc1)ONC(CCCCNC(=O)OCc1ccccc1)C(=O)Nc1ccc(Cc2ccc(NC(=O)C(CCCCNC(=O)OCc3ccccc3)NC(=O)OCc3ccccc3)cc2)cc1` (stereo unspecified), the EC50 was more than 100 µM and the IC50 was more than 100 µM.

In the case of `Cn1c(=O)c2c(nc(C[N+]3([O-])CCOCC3)n2C)n(C)c1=O`, the EC50 is more than 83.2 µM and the IC50 was more than 83.2 µM.

For `Cc1ccc2c(c1)C1(C)c3cc(C)ccc3SP1S2` (stereo unspecified), the EC50 is more than 12.6 µM and the IC50 was more than 12.6 µM.

As to `O=C1CCCC2=C1C(c1ccncc1)Nc1ccccc1N2` (stereo unspecified), the EC50 was more than 200 µM and the half-inhibitory concentration (IC50) was more than 200 µM.

On to `Clc1nc(Nc2nc3ccccc3[nH]2)nc(Cl)c1-c1ccccc1`, for which the outcome was inactive.

As for `CC(=O)CC(C)=O.CCN(CC)CC[C-]=O.[Pd+2]`, the EC50 was more than 200 µM and the concentration for half-maximal inhibition (IC50) is 5.89 µM.

For `O=c1c(S(=O)(=O)Oc2ccccc2)coc2cc(F)ccc12`, the EC50 is more than 200 µM and the half-inhibitory concentration (IC50) turned out to be 135 µM.

In the case of `Cc1ccc(C2(C)CC(C)(C)c3ccc(C)cc3O2)c(O)c1` (stereo unspecified), the EC50 is more than 200 µM and the IC50 turned out to be 20.4 µM.

For `COc1nc2ncc([C@@H](OC(C)=O)[C@@H](COC(C)=O)OC(C)=O)nc2c(=O)n1C`, the EC50 was more than 200 µM and the IC50 is more than 200 µM.

On to `Cc1cc2n([O-])cccc-2[n+](=O)c1`, for which the EC50 was more than 200 µM and the 50% inhibitory concentration (IC50) was more than 200 µM.

Consider `Cc1nc2c(sc3nc4c(cc32)CCC4)c(=O)o1`, for which the EC50 was more than 100 µM and the IC50 is 53.7 µM.

As to `COC(=O)C(C)Sc1nc2cc(Cl)ccc2s1` (stereo unspecified), the EC50 was more than 200 µM and the IC50 was determined as 174 µM.

Consider `COC(=O)C1(C(=O)OC)N=C(C)OC1c1ccccn1` (stereo unspecified), for which the EC50 was more than 200 µM and the IC50 was more than 200 µM.

As for `CCCc1c2c([nH]c(=O)c1C)C(=O)c1[nH]c(=O)c(C)c(CCC)c1C2=O`, the outcome was inactive.

On to `Cc1ccc2c(=O)c3c(O)c4c(cc3n(C)c2c1)OC(C)(C)C=C4`, for which the EC50 is more than 200 µM and the IC50 was more than 200 µM.

In the case of `CC(C)(C)CC(C)(C)c1ccc(OCCOCC[N+](C)(C)Cc2ccccc2)cc1`, the outcome was inactive.

Consider `CC(=O)N(C)SCC(NC(=O)C(Cc1ccccc1)NC(=O)OCc1ccccc1)C(=O)NC(Cc1ccccc1)C(=O)NC(Cc1cn(C=O)c2ccccc12)C(=O)NC(CCCCNC(=O)OCc1ccccc1)C(=O)NC(C(=O)NC(CSN(C)C(C)=O)/C(O)=N\O)C(C)OCc1ccccc1` (stereo unspecified) (Cbz-F[X3]FW(For)K(Cbz)T(Bn)-X20; configuration not given here), for which the outcome was inactive.

Take `CNC(=O)Nc1ccc(Cl)cn1`: the EC50 is more than 200 µM and the IC50 was more than 200 µM.

Take `NC12CCC(N)(c3ccccc31)c1ccccc12`: the EC50 was more than 200 µM and the IC50 is more than 200 µM.

With `COc1c2c(c(N)c3ccc(=O)oc13)CCO2`, the EC50 was more than 126 µM and the IC50 was more than 126 µM.

As for `c1ccc(-c2c3c(nc4c2CC[C@H]4NC2=NCCN2)[C@@H](NC2=NCCN2)CC3)cc1`, the EC50 was more than 200 µM and the IC50 is more than 200 µM.

Regarding `O=C1CC=CN1CCn1c(=S)[nH]c2ccccc21`, the EC50 is more than 501 µM and the IC50 was more than 501 µM.

`C#CCOC(=O)[C@@H](C)c1ccc2cc(OC)ccc2c1`: the EC50 is more than 200 µM and the IC50 turned out to be 47.9 µM.

`O=C(Nc1ccc(Cl)c(C(F)(F)F)c1)C(=O)C(C(=O)/C=C/c1ccccc1)C1OC(=O)c2ccccc21` (stereo unspecified): the EC50 was more than 129 µM and the IC50 turned out to be 20.9 µM.

Take `Cn1cc(C(=O)NCCC(=N)N)cc1NC(=O)C1=[N+](C)C=C(NC(=O)c2cccc(C(=O)NC3=CC(C(=O)Nc4cc(C(=O)NCCC(=N)N)cn4C)=[N+](C)C3)c2)C1`: the EC50 was 3.47 µM and the IC50 came out at 74.1 µM.

For `CC(C)OP(=O)(OC(C)C)C(=Nc1ccncc1)NNc1ccc([N+](=O)[O-])cc1`, the EC50 was more than 61.7 µM and the 50% inhibitory concentration (IC50) was more than 61.7 µM.

On to `CCC(=O)c1c(O)c2ccccc2oc1=O`, for which the EC50 is more than 200 µM and the IC50 is more than 100 µM.

`CCc1cc(Cc2cc(CC)c(NC(=O)C3=CC(=O)CC(c4ccc(OC)cc4)O3)c(CC)c2Cl)c(Cl)c(CC)c1NC(=O)C1=CC(=O)CC(c2ccc(OC)cc2)O1` (stereo unspecified): the outcome was inactive.

As to `CC(=O)c1ccc(NC(=O)C(=O)C(C#N)CC(C)(C)C=O)cc1` (stereo unspecified), the EC50 was more than 83.2 µM and the IC50 was more than 83.2 µM.

Take `O=C1c2c(n(Cc3ccccc3)c(=O)n2Cc2ccccc2)C(=O)N1Cc1ccccc1`: the EC50 is more than 17 µM and the IC50 is more than 17 µM.

As to `CCOC(=O)/C(=C\c1cccc(Cl)c1)C(C)=O`, the EC50 was more than 141 µM and the IC50 came out at 57.5 µM.

For `N#C/C(C(=O)Nc1ccccc1)=C(/N)N1CCCCC1`, the EC50 is more than 200 µM and the half-maximal inhibitory concentration (IC50) is more than 200 µM.

Take `Sc1cccc2c(S)cccc12`: the EC50 was more than 200 µM and the concentration for half-maximal inhibition (IC50) is more than 200 µM.

For the compound `CC(=O)O[C@@]1(C)C[C@@H](O)[C@]2(O)C=CO[C@@H](OC3OC(CO)C(O)C(O)C3O)[C@@H]21` (stereo partly specified), the result was inactive.

With `N#Cc1cccc(CSc2ncnc3nc[nH]c23)c1`, the EC50 was more than 200 µM and the IC50 was 81.3 µM.

With `CCCCCC(/C=C/C1CCC(=O)C1CC#C[Si](C)(C)C)OCc1ccccc1` (stereo unspecified), the EC50 was more than 200 µM and the concentration for half-maximal inhibition (IC50) was 27.5 µM.

Take `CCOP(=O)(OCC)/C(C#N)=C/c1ccnc2ccccc12`: the EC50 was more than 200 µM and the IC50 was determined as 11.2 µM.

As for `O=S(=O)(O)c1cc(N=Nc2ccc(O)c3ccccc23)ccc1/C=C/c1ccc(N=Nc2ccc(O)c3ccccc23)cc1S(=O)(=O)O`, the EC50 is 13.5 µM and the half-inhibitory concentration (IC50) was determined as 50.1 µM.

Consider `Cc1ccc(C)c(NC(=O)C(=O)C2C(=O)C3=C(CC2(C)C)Nc2ccccc2S3)c1` (stereo unspecified), for which the EC50 was more than 85.1 µM and the IC50 was more than 85.1 µM.

For `O=c1cc(-c2ccccc2)oc2ccc(-c3ccc4oc(-c5ccccc5)cc(=O)c4c3)cc12`, the EC50 was more than 200 µM and the IC50 was determined as 27.5 µM.

For `O=c1ccc2nc3ccc(O)cc3oc-2c1`, the EC50 is more than 200 µM and the 50% inhibitory concentration (IC50) came out at 14.1 µM.

With `Cc1ccc2c(c1)[nH]c(=S)n2C=C1C(=O)NC(=O)NC1=O`, the EC50 was more than 100 µM and the IC50 is more than 100 µM.

Turning to `Cc1ccccc1Nc1ccc([N+](=O)[O-])c2nonc12`, the EC50 is more than 83.2 µM and the IC50 came out at 33.1 µM.

As for `COc1ccc(-c2cc(-c3ccc(Cl)cc3)n(C3OC(CO)C(O)C(O)C3O)c(=S)c2C#N)cc1` (stereo unspecified), the EC50 is more than 200 µM and the IC50 amounted to 7.76 µM.

Turning to `N=C1C(=N)c2ccccc2-c2ccccc21.[Cl-].[Rh+3].c1cnc2c(c1)ccc1cccnc12.c1cnc2c(c1)ccc1cccnc12`, the outcome was inactive.

As for `O=c1n(-c2ccccc2)c(=O)n2c(=O)n(-c3ccccc3)c(=O)n12`, the EC50 is more than 100 µM and the IC50 was more than 100 µM.

`Cn1cc(N)cc1C(=O)Nc1cc(C(=O)Nc2ccc3cc(S(=O)(=O)O)cc(S(=O)(=O)O)c3c2)n(C)n1`: the EC50 was 18.2 µM and the concentration for half-maximal inhibition (IC50) is more than 100 µM.

With `N#Cc1ccc(NC(=NCC(=O)O)Nc2cccc3ccccc23)cc1`, the EC50 was more than 200 µM and the concentration for half-maximal inhibition (IC50) is more than 200 µM.

On to `Cc1cc(O)cc2c1O[C@@]1(C)CCC3[C@@]4(C)CC[C@H](O)C(C)(C)C4CC[C@@]3(C)[C@H]1C2` (stereo partly specified), for which the outcome was inactive.

Turning to `Cc1cc(CN(Cc2ccccc2)Cc2nc3ccccc3[nH]2)c(O)c(CN(Cc2nc3ccccc3[nH]2)Cc2nc3ccccc3[nH]2)c1`, the EC50 was more than 200 µM and the concentration for half-maximal inhibition (IC50) came to 24.5 µM.

For the compound `O=[As]O`, the result was inactive.

For `Cc1cccc(CC(=O)c2ccccc2)n1`, the EC50 is more than 200 µM and the IC50 was determined as 53.7 µM.

As for `CNC(=S)NC1CCCCC1NC(=S)NC` (stereo unspecified), the EC50 was more than 692 µM and the IC50 was more than 692 µM.

As to `O=[N+]([O-])c1cccc(-c2ncnc(-c3cccc([N+](=O)[O-])c3)n2)c1`, the EC50 is more than 100 µM and the IC50 was more than 100 µM.

Take `NC1=NS(=O)(=O)Nc2nonc21`: the EC50 is more than 1320 µM and the IC50 is more than 1320 µM.

As for `C[C@H](NS(=O)(=O)c1ccc(NC(=O)c2ccccc2)cc1)C(=O)O`, the result was inactive.

For `CC1OC(OC2C(O)COC(OC3C(C)OC(OC4C(OC(=O)[C@]56CCC(C)(C)C[C@@H]5C5=CCC7[C@@]8(C)C[C@H](O)[C@H](OC9OC(CO)C(O)C(O)C9O)[C@@](C)(CO)[C@@H]8CC[C@@]7(C)[C@]5(C)CC6)OCC(O)C4O)C(O)C3OC3OCC(O)(CO)C3O)C2O)C(O)C(O)C1O` (stereo partly specified), the EC50 is more than 30.2 µM and the half-maximal inhibitory concentration (IC50) amounted to 17.8 µM.

As for `CN(C)c1ccc(-c2[nH]c(=O)c3ccccc3[n+]2C)cc1`, the EC50 was more than 200 µM and the 50% inhibitory concentration (IC50) is 66.1 µM.

Turning to `CC(C)c1ccc(O)c(=O)cc1`, the result was inactive.

Take `O=S1(=O)C=Cc2ccccc2CC1`: the EC50 is more than 1290 µM and the IC50 came out at 741 µM.

Turning to `CC1(C)CCC2=C(C1)Nc1ccc(Cl)cc1NC2c1ccc([N+](=O)[O-])cc1` (stereo unspecified), the EC50 was more than 200 µM and the IC50 came to 24.5 µM.

In the case of `COC(=O)C1=Cc2cc(OC)c(O)cc2[C@@H](c2ccc(O)c(OC)c2)[C@@H]1C(=O)OC`, the EC50 was more than 200 µM and the IC50 is 77.6 µM.

For the compound `C=C1CCC2C(C)(CO)C(O)CCC2(C)C1C/C=C1/CCOC1=O` (stereo unspecified), the outcome was inactive.

In the case of `CN(C)C1C(CO)OC(n2cnc3c(N)ncnc32)C1O` (stereo unspecified), the EC50 is more than 200 µM and the concentration for half-maximal inhibition (IC50) is more than 200 µM.

Turning to `[C-]#[O+].[C-]#[O+].[C-]#[O+].[Mo].c1ccc([PH+](CC[As](c2ccccc2)c2ccccc2)CC[As](c2ccccc2)c2ccccc2)cc1`, the outcome was inactive.

With `CCCCN(C)CC(C(C)=O)C(c1ccccc1)c1c(O)c2ccccc2oc1=O` (stereo unspecified), the EC50 is more than 67.6 µM and the IC50 amounted to 60.3 µM.
